This is an account of results in ChEMBL document CHEMBL3734661, “The chemistry and pharmacology of privileged pyrroloquinazolines” (Medchemcomm, 2015).

Numbering of substitutions follows the chain as printed. In brackets after ≈: the same amount, converted by molar mass.

Data set [1] can be described thus: Cytotoxicity against human HCT8 cells assessed as growth inhibition by MTT assay. Format: functional. Particulars: HCT-8. Background: Tetrazolium assays rely on reduction of a dye to a coloured formazan, in cell work by metabolically active cells.
The test system of another data set is Candida albicans. The data set is described as follows: Antifungal activity against Candida albicans after 24 hrs by microtiter method. Type of data set: functional.
In data set [2] the target is T1, Dihydrofolate reductase (Homo sapiens, UniProt P00374).
T1 sequence (P00374 whole entry): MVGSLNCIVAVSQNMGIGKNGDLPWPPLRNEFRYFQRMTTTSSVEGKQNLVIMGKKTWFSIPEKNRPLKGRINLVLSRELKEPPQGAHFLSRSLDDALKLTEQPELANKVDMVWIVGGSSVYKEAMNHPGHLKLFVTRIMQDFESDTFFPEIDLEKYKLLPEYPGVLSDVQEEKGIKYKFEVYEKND
The data set is described as follows: Competitive inhibition of human recombinant DHFR preincubated for 2 mins followed by substrate addition in presence of dihydrofolate.

Data set [3] in a line: Half life in Beagle dog at 5 mg/kg, po. Particulars: in vivo. Type of data set: ADME, organism-based, Canis lupus familiaris.
The nature of data set [4]: Half life in Beagle dog at 2.5 mg/kg, iv. Conditions: in vivo. Format: ADME, organism-based, Canis lupus familiaris.
Data set [5] can be described thus: Volume of distribution in Beagle dog at 2.5 mg/kg, iv. Format: ADME, organism-based, Canis lupus familiaris. Particulars: in vivo.
Data set [6] is described as follows: Tmax in Beagle dog at 5 mg/kg, po. Format: ADME, organism-based, Canis lupus familiaris. Particulars: in vivo.
Data set [7] in a line: Oral bioavailability in Beagle dog at 5 mg/kg. Type of data set: ADME, organism-based, Canis lupus familiaris. Particulars: in vivo.
Data set [8] in a line: Cmax in Beagle dog at 5 mg/kg, po after 1.8 hrs. Conditions: in vivo. Also noted: dose 5 mg/kg, route oral. Type of data set: ADME, organism-based, Canis lupus familiaris.
Data set [9] in a line: Inhibition of DHFR in Crithidia oncopelti using dihydrofolate as substrate preincubated for 5 mins followed by substrate addition by spectrofluorometric analysis.
For another data set, the system named is L1210. Briefly: Cytotoxicity against mouse L1210 cells assessed as growth inhibition after 48 hrs by MTT assay. Particulars: L1210, 48 h. Format: functional, cell-based.
For data set [10], the target named is Dihydrofolate reductase (Lactobacillus casei, UniProt P00381). The data set is described as follows: Inhibition of DHFR in Lactobacillus casei using dihydrofolate as substrate preincubated for 5 mins followed by substrate addition by spectrofluorometric analysis. Also noted: species or system Lacticaseibacillus casei.
Data set [11] addresses T2, Dihydrofolate reductase (Mus musculus, UniProt P00375).
T2 sequence (P00375 whole entry): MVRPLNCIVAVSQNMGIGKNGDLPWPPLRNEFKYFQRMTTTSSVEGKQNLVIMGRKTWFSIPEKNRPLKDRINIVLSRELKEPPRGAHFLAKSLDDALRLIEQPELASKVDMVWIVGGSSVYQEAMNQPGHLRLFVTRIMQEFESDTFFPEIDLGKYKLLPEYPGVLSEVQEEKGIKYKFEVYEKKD
The data set is described as follows: Inhibition of DHFR in mouse L1210 cells using dihydrofolate as substrate preincubated for 5 mins followed by substrate addition by spectrofluorometric analysis. Format: cell-based.

The target in data set [12] is T3, Dihydrofolate reductase (Rattus norvegicus, UniProt Q920D2).
T3 sequence (Q920D2 whole entry): T2 sequence (P00375 whole entry) with P27L, R85Q, R99K, I115V, G155E, V170I
Briefly: Inhibition of rat DHFR extracted from liver using dihydrofolate as substrate preincubated for 5 mins followed by substrate addition by spectrofluorometric analysis.

Data set [13] deals with Plasmodium falciparum. Briefly: Antimalarial activity against Plasmodium falciparum TM91C235 assessed as [3H]hypoxantine incorporation preincubated for 48 hrs followed by [3H]hypoxantine addition measured after 18 hrs by scintillation counting analysis. Type of data set: functional, organism-based.
Data set [14] has as its system Plasmodium falciparum. The data set is described as follows: Antimalarial activity against Plasmodium falciparum W-2 assessed as [3H]hypoxantine incorporation preincubated for 48 hrs followed by [3H]hypoxantine addition measured after 18 hrs by scintillation counting analysis. Format: functional, organism-based.
Data set [15] is described as follows: Therapeutic index, ratio of MTD for Sprague-Dawley rat to MCD for Plasmodium berghei infected in Sprague-Dawley rat. Particulars: read-out: TI.
Data set [16] concerns Plasmodium falciparum. The data set is described as follows: Antimalarial activity against Plasmodium falciparum RCS assessed as [3H]hypoxantine incorporation preincubated for 48 hrs followed by [3H]hypoxantine addition measured after 18 hrs by scintillation counting analysis. Format: functional, organism-based.
Data set [17] deals with Plasmodium falciparum. Briefly: Antimalarial activity against Plasmodium falciparum D6 assessed as [3H]hypoxantine incorporation preincubated for 48 hrs followed by [3H]hypoxantine addition measured after 18 hrs by scintillation counting analysis. Format: functional, organism-based.
Data set [18] in a line: Cytotoxic activity against human HL60 cells. Type of data set: functional, cell-based. Conditions: HL-60.
Another data set relates to Candida. The data set is described as follows: Antifungal activity against Candida clinical isolates after 24 hrs by microtiter method. Type of data set: functional.
Another data set concerns Human alphaherpesvirus 1. Briefly: Antiviral activity against HSV1 after 1.5 hrs by microtiter plate reader analysis. Conditions: Human alphaherpesvirus 1, 1.5 h.

For the compound `CCC(CC)n1c(C)cc2c3c(N)nc(N)nc3ccc21`, the GI50 in [1] was 0.74 nM. The same compound showed a minimal inhibitory concentration (MIC) against Candida albicans of 0.025 µg/mL (≈ 0.0882 µM). In addition, the Ki on Dihydrofolate reductase [2] turned out to be 0.0003 nM. Moreover, the results for the half-life in data set [3] and in data set [4] were 4 h and 2.8 h, respectively. This compound also displayed a Vd in [5] of 9.3 L/g. In [6], the Tmax was 1.8 h. For the same compound, in data set [7], the bioavailability amounted to 49%. The same compound came in with a Cmax in data set [8] of 170 ng/mL.
Turning to `N#Cc1ccc(Cn2ccc3c4c(N)nc(N)nc4ccc32)cc1`, the IC50 in data set [9] came out at 0.7 nM; in the data set on L1210 it was 40 nM; at Dihydrofolate reductase [10] it was 6.4 nM; against Dihydrofolate reductase [11], 4 nM; against Dihydrofolate reductase [12], 2.1 nM.
`Nc1nc(N)c2c(ccc3[nH]ccc32)n1`: at Dihydrofolate reductase [2], the Ki was found to be 1 nM.
In the case of `CC(=O)N(C(C)=O)c1nc(N(C(C)=O)C(C)=O)c2c(ccc3c2ccn3Cc2ccccc2C(F)(F)F)n1`, the IC50 in the data set on Plasmodium falciparum [13] amounted to 0.16 nM; with Plasmodium falciparum [14] it was 0.14 nM; in the data set on Plasmodium falciparum [16], 0.046 nM; in the data set with Plasmodium falciparum [17] it was 0.046 nM. Besides, in data set [15], the selectivity ratio turned out to be 80.
On to `CCn1c2ccccc2c2c3c(=O)[nH]c(NCCN(C)C)nc3ccc21`, for which 17000 nM corresponded to half-maximal inhibition in data set [18] (IC50).
Take `Nc1nc(N)c2c(ccc3c2ccn3CC2CC2)n1`: the MIC in the data set on Candida albicans and against Candida was 1.39 µg/mL (≈ 5.49 µM) throughout.
On to `Cc1cc2c(ccc3nc(N)nc(N)c32)[nH]1`, for which inhibition in the data set on Human alphaherpesvirus 1 was half-maximal at 15000 nM (IC50).
As to `Nc1nc(N)c2c(ccc3c2ccn3Cc2ccccc2)n1`, the MIC in the data set with Candida albicans and against Candida was 0.64 µg/mL (≈ 2.21 µM) in each case.

Usually GI50 stands for the concentration giving 50% growth inhibition. The term MIC denotes the lowest concentration found to suppress growth. As usually defined, the Ki is the equilibrium dissociation constant of an inhibitor or competing ligand from its target. As a reminder, the half-life is how long it takes for the measured level to halve. A high value points to slow loss. As usually defined, the Tmax is the time from dosing to the highest level. For orientation: bioavailability means dose-corrected exposure relative to a reference, in per cent. As usually defined, the Cmax is the maximum level reached in the sampled fluid or tissue. In general, IC50 refers to the concentration that gives 50% inhibition.
